Each molecule was assayed on S. aureus (ATCC 29213) (assay: Zone of inhibition screen, 96 well agar array format). Conditions: zone of inhibition relative to 1 mg/ml p-chlorobiphenylvancomycin.
Assay type: cell-based
Design: scale not given here
Method: (§1) The antibacterial activity of each of the compounds against the bacterial strains E. faceium (ATCC 49624), S. epidermidis (ATCC 12228), S. aureus (ATCC 29213), E. faecalis (CL 4877) and E. faecalis (ATCC 292121) was tested. Each of the compounds was screened in a 96 will agar array format.
With `COC(=O)C1=C(C)NC(=O)C1CC(=O)NC1C(=O)NC(CC(N)=O)C(=O)NC2C(=O)NC3C(=O)NC(C(=O)NC(C(=O)O)c4cc(O)cc(O)c4-c4cc3ccc4O)C(O)c3ccc(c(Cl)c3)Oc3cc2cc(c3OC2OC(CO)C(O)C(O)C2OC2CC(C)(NCc3ccc(-c4ccc(Cl)cc4)cc3)C(O)C(C)O2)Oc2ccc(cc2Cl)C1O` (mixture of isomers) [Compound 299] the “zone score, S. aureus ATCC 29213” value was 2.

Same assay, conditions: zone of inhibition relative to 1 mg/ml stock solution of p-chlorobiphenylvancomycin
With `CC1OC(OC2C(Oc3c4cc5cc3Oc3ccc(cc3Cl)C(O)C(NC(=O)C3OC(O)C(O)C3O)C(=O)NC(CC(N)=O)C(=O)NC5C(=O)NC3C(=O)NC(C(=O)NC(C(=O)O)c5cc(O)cc(O)c5-c5cc3ccc5O)C(O)c3ccc(c(Cl)c3)O4)OC(CO)C(O)C2O)CC(C)(NCc2ccc(-c3ccc(Cl)cc3)cc2)C1O` (mixture of isomers) [Compound 128] the “zone score, S. aureus ATCC 29213” value was 2. For `C[C@H]1O[C@H](O[C@H]2[C@H](Oc3c4cc5cc3Oc3ccc(cc3Cl)[C@@H](O)[C@@H](NC(=O)[C@@H](N)Cc3ccc(OC(C)(C)C)cc3)C(=O)N[C@@H](CC(N)=O)C(=O)N[C@H]5C(=O)N[C@H]3C(=O)N[C@H](C(=O)N[C@@H](C(=O)O)c5cc(O)cc(O)c5-c5cc3ccc5O)[C@H](O)c3ccc(c(Cl)c3)O4)O[C@H](CO)[C@@H](O)[C@@H]2O)C[C@@](C)(NCc2ccc(-c3ccc(Cl)cc3)cc2)[C@H]1O` [Compound 19], the “zone score, S. aureus ATCC 29213” value was 2. In the case of `CC1OC(OC2C(Oc3c4cc5cc3Oc3ccc(cc3Cl)C(O)C3NC(=O)C(NC(=O)C5NC(=O)C(CC(N)=O)NC(=O)C(NC(=O)c5[nH]c(=O)[nH]c(=O)c5N)C(O)c5ccc(c(Cl)c5)O4)c4ccc(O)c(c4)-c4c(O)cc(O)cc4C(C(=O)O)NC3=O)OC(CO)C(O)C2O)CC(C)(NCc2ccc(-c3ccc(Cl)cc3)cc2)C1O` (stereo not drawn) [Compound 109], the “zone score, S. aureus ATCC 29213” value is reported as 2. For `CC(=O)NC(C)C(=O)NC1C(=O)NC(CC(N)=O)C(=O)NC2C(=O)NC3C(=O)NC(C(=O)NC(C(=O)O)c4cc(O)cc(O)c4-c4cc3ccc4O)C(O)c3ccc(c(Cl)c3)Oc3cc2cc(c3OC2OC(CO)C(O)C(O)C2OC2CC(C)(NCc3ccc(-c4ccc(Cl)cc4)cc3)C(O)C(C)O2)Oc2ccc(cc2Cl)C1O` (stereo not drawn) [Compound 112], the “zone score, S. aureus ATCC 29213” value was 2. `CC(=O)NCCCCC(NC(C)=O)C(=O)NC1C(=O)NC(CC(N)=O)C(=O)NC2C(=O)NC3C(=O)NC(C(=O)NC(C(=O)O)c4cc(O)cc(O)c4-c4cc3ccc4O)C(O)c3ccc(c(Cl)c3)Oc3cc2cc(c3OC2OC(CO)C(O)C(O)C2OC2CC(C)(NCc3ccc(-c4ccc(Cl)cc4)cc3)C(O)C(C)O2)Oc2ccc(cc2Cl)C1O` (stereo not drawn) [Compound 123] was tested, and the “zone score, S. aureus ATCC 29213” value was 2. `CC(=O)NC(CC[S+](C)[O-])C(=O)NC1C(=O)NC(CC(N)=O)C(=O)NC2C(=O)NC3C(=O)NC(C(=O)NC(C(=O)O)c4cc(O)cc(O)c4-c4cc3ccc4O)C(O)c3ccc(c(Cl)c3)Oc3cc2cc(c3OC2OC(CO)C(O)C(O)C2OC2CC(C)(NCc3ccc(-c4ccc(Cl)cc4)cc3)C(O)C(C)O2)Oc2ccc(cc2Cl)C1O` (stereo not drawn) [Compound 124] was tested, and the “zone score, S. aureus ATCC 29213” value was 2. In the case of `CC1OC(OC2C(Oc3c4cc5cc3Oc3ccc(cc3Cl)C(O)C3NC(=O)C(NC(=O)C5NC(=O)C(CC(N)=O)NC(=O)C(NC(=O)C(CCS(C)(=O)=O)NC(=O)OC(C)(C)C)C(O)c5ccc(c(Cl)c5)O4)c4ccc(O)c(c4)-c4c(O)cc(O)cc4C(C(=O)O)NC3=O)OC(CO)C(O)C2O)CC(C)(NCc2ccc(-c3ccc(Cl)cc3)cc2)C1O` (stereo not drawn) [Compound 143], the “zone score, S. aureus ATCC 29213” value is reported as 2. In the case of `CC1OC(OC2C(Oc3c4cc5cc3Oc3ccc(cc3Cl)[C@@H](O)[C@@H](NC(=O)CC3NC(=O)NC3=O)C(=O)N[C@@H](CC(N)=O)C(=O)N[C@H]5C(=O)NC3C(=O)N[C@H](C(=O)N[C@@H](C(=O)O)c5cc(O)cc(O)c5-c5cc3ccc5O)[C@H](O)c3ccc(c(Cl)c3)O4)OC(CO)C(O)C2O)CC(C)(NCc2ccc(-c3ccc(Cl)cc3)cc2)C1O` (stereo partly drawn) [Compound 163], the “zone score, S. aureus ATCC 29213” value is reported as 2.

The molecules below were run on E. faecalis (CL 4877) in the same assay as above. Conditions: zone of inhibition relative to 1 mg/ml p-chlorobiphenylvancomycin.
Assay type: cell-based
Design: scale not given here
Method: as §1
In the case of `CCSCC(=O)NC1C(=O)NC(CC(N)=O)C(=O)NC2C(=O)NC3C(=O)NC(C(=O)NC(C(=O)O)c4cc(O)cc(O)c4-c4cc3ccc4O)C(O)c3ccc(c(Cl)c3)Oc3cc2cc(c3OC2OC(CO)C(O)C(O)C2OC2CC(C)(NCc3ccc(-c4ccc(Cl)cc4)cc3)C(O)C(C)O2)Oc2ccc(cc2Cl)C1O` (stereo not drawn) [Compound 225], the “zone score, E. faecalis CL 4877” value is reported as 2. `CC1OC(OC2C(Oc3c4cc5cc3Oc3ccc(cc3Cl)C(O)C3NC(=O)C(NC(=O)C5NC(=O)C(CC(N)=O)NC(=O)C(NC(=O)c5cccnc5O)C(O)c5ccc(c(Cl)c5)O4)c4ccc(O)c(c4)-c4c(O)cc(O)cc4C(C(=O)O)NC3=O)OC(CO)C(O)C2O)CC(C)(NCc2ccc(-c3ccc(Cl)cc3)cc2)C1O` (stereo not drawn) [Compound 241] was tested, and the “zone score, E. faecalis CL 4877” value was 2. `CCC(=O)C(=O)NC1C(=O)NC(CC(N)=O)C(=O)NC2C(=O)NC3C(=O)NC(C(=O)NC(C(=O)O)c4cc(O)cc(O)c4-c4cc3ccc4O)C(O)c3ccc(c(Cl)c3)Oc3cc2cc(c3OC2OC(CO)C(O)C(O)C2OC2CC(C)(NCc3ccc(-c4ccc(Cl)cc4)cc3)C(O)C(C)O2)Oc2ccc(cc2Cl)C1O` (stereo not drawn) [Compound 242] was tested, and the “zone score, E. faecalis CL 4877” value was 2. `CC1OC(OC2C(Oc3c4cc5cc3Oc3ccc(cc3Cl)C(O)C3NC(=O)C(NC(=O)C5NC(=O)C(CC(N)=O)NC(=O)C(NC(=O)CC(F)(F)F)C(O)c5ccc(c(Cl)c5)O4)c4ccc(O)c(c4)-c4c(O)cc(O)cc4C(C(=O)O)NC3=O)OC(CO)C(O)C2O)CC(C)(NCc2ccc(-c3ccc(Cl)cc3)cc2)C1O` (stereo not drawn) [Compound 249] was tested, and the “zone score, E. faecalis CL 4877” value was 2. `C[C@H]1O[C@H](O[C@H]2[C@H](Oc3c4cc5cc3Oc3ccc(cc3Cl)[C@@H](O)[C@@H](NC(=O)/C=C/c3ccc(Cl)c(Cl)c3)C(=O)N[C@@H](CC(N)=O)C(=O)N[C@H]5C(=O)N[C@H]3C(=O)N[C@H](C(=O)N[C@@H](C(=O)O)c5cc(O)cc(O)c5-c5cc3ccc5O)[C@H](O)c3ccc(c(Cl)c3)O4)O[C@H](CO)[C@@H](O)[C@@H]2O)C[C@@](C)(NCc2ccc(-c3ccc(Cl)cc3)cc2)[C@H]1O` [Compound 251] was tested, and the “zone score, E. faecalis CL 4877” value was 2. In the case of `CC1OC(OC2C(Oc3c4cc5cc3Oc3ccc(cc3Cl)C(O)C3NC(=O)C(NC(=O)C5NC(=O)C(CC(N)=O)NC(=O)C(NC(=O)c5ccc(N)cc5)C(O)c5ccc(c(Cl)c5)O4)c4ccc(O)c(c4)-c4c(O)cc(O)cc4C(C(=O)O)NC3=O)OC(CO)C(O)C2O)CC(C)(NCc2ccc(-c3ccc(Cl)cc3)cc2)C1O` (stereo not drawn) [Compound 268], the “zone score, E. faecalis CL 4877” value is reported as 2. For `CC1OC(OC2C(Oc3c4cc5cc3Oc3ccc(cc3Cl)C(O)C3NC(=O)C(NC(=O)C5NC(=O)C(CC(N)=O)NC(=O)C(NC(=O)c5cccnc5)C(O)c5ccc(c(Cl)c5)O4)c4ccc(O)c(c4)-c4c(O)cc(O)cc4C(C(=O)O)NC3=O)OC(CO)C(O)C2O)CC(C)(NCc2ccc(-c3ccc(Cl)cc3)cc2)C1O` (stereo not drawn) [Compound 307], the “zone score, E. faecalis CL 4877” value was 2. In the case of `CC1OC(OC2C(Oc3c4cc5cc3Oc3ccc(cc3Cl)C(O)C3NC(=O)C(NC(=O)C5NC(=O)C(CC(N)=O)NC(=O)C(NC(=O)c5ccccc5O)C(O)c5ccc(c(Cl)c5)O4)c4ccc(O)c(c4)-c4c(O)cc(O)cc4C(C(=O)O)NC3=O)OC(CO)C(O)C2O)CC(C)(NCc2ccc(-c3ccc(Cl)cc3)cc2)C1O` (stereo not drawn) [Compound 315], the “zone score, E. faecalis CL 4877” value is reported as 2. `CC1OC(OC2C(Oc3c4cc5cc3Oc3ccc(cc3Cl)C(O)C3NC(=O)C(NC(=O)C5NC(=O)C(CC(N)=O)NC(=O)C(NC(=O)C5CCOC5)C(O)c5ccc(c(Cl)c5)O4)c4ccc(O)c(c4)-c4c(O)cc(O)cc4C(C(=O)O)NC3=O)OC(CO)C(O)C2O)CC(C)(NCc2ccc(-c3ccc(Cl)cc3)cc2)C1O` (stereo not drawn) [Compound 317] was tested, and the “zone score, E. faecalis CL 4877” value was 2.

Same assay, conditions: zone of inhibition relative to 1 mg/ml stock solution of p-chlorobiphenylvancomycin
In the case of `CC1OC(OC2C(Oc3c4cc5cc3Oc3ccc(cc3Cl)[C@@H](O)[C@@H](NC(=O)[C@@H]3CCC(=O)N3)C(=O)N[C@@H](CC(N)=O)C(=O)N[C@H]5C(=O)NC3C(=O)N[C@H](C(=O)N[C@@H](C(=O)O)c5cc(O)cc(O)c5-c5cc3ccc5O)[C@H](O)c3ccc(c(Cl)c3)O4)OC(CO)C(O)C2O)CC(C)(NCc2ccc(-c3ccc(Cl)cc3)cc2)C1O` (stereo partly drawn) [Compound 169], the “zone score, E. faecalis CL 4877” value is reported as 2. In the case of `CC1OC(OC2C(Oc3c4cc5cc3Oc3ccc(cc3Cl)[C@@H](O)[C@@H](NC(=O)CS(C)(=O)=O)C(=O)N[C@@H](CC(N)=O)C(=O)N[C@H]5C(=O)NC3C(=O)N[C@H](C(=O)N[C@@H](C(=O)O)c5cc(O)cc(O)c5-c5cc3ccc5O)[C@H](O)c3ccc(c(Cl)c3)O4)OC(CO)C(O)C2O)CC(C)(NCc2ccc(-c3ccc(Cl)cc3)cc2)C1O` (stereo partly drawn) [Compound 171], the “zone score, E. faecalis CL 4877” value is reported as 2. In the case of `CC(=O)CC(=O)NCC(=O)N[C@H]1C(=O)N[C@@H](CC(N)=O)C(=O)N[C@H]2C(=O)NC3C(=O)N[C@H](C(=O)N[C@@H](C(=O)O)c4cc(O)cc(O)c4-c4cc3ccc4O)[C@H](O)c3ccc(c(Cl)c3)Oc3cc2cc(c3OC2OC(CO)C(O)C(O)C2OC2CC(C)(NCc3ccc(-c4ccc(Cl)cc4)cc3)C(O)C(C)O2)Oc2ccc(cc2Cl)[C@H]1O` (stereo partly drawn) [Compound 172], the “zone score, E. faecalis CL 4877” value is reported as 2. In the case of `CC(=O)NCC(=O)N[C@H]1C(=O)N[C@@H](CC(N)=O)C(=O)N[C@H]2C(=O)NC3C(=O)N[C@H](C(=O)N[C@@H](C(=O)O)c4cc(O)cc(O)c4-c4cc3ccc4O)[C@H](O)c3ccc(c(Cl)c3)Oc3cc2cc(c3OC2OC(CO)C(O)C(O)C2OC2CC(C)(NCc3ccc(-c4ccc(Cl)cc4)cc3)C(O)C(C)O2)Oc2ccc(cc2Cl)[C@H]1O` (stereo partly drawn) [Compound 179], the “zone score, E. faecalis CL 4877” value is reported as 2. In the case of `CC(=O)NC(CCCNC(=N)N)C(=O)NC1C(=O)NC(CC(N)=O)C(=O)NC2C(=O)NC3C(=O)NC(C(=O)NC(C(=O)O)c4cc(O)cc(O)c4-c4cc3ccc4O)C(O)c3ccc(c(Cl)c3)Oc3cc2cc(c3OC2OC(CO)C(O)C(O)C2OC2CC(C)(NCc3ccc(-c4ccc(Cl)cc4)cc3)C(O)C(C)O2)Oc2ccc(cc2Cl)C1O` (stereo not drawn) [Compound 184], the “zone score, E. faecalis CL 4877” value is reported as 2. For `CC1OC(OC2C(Oc3c4cc5cc3Oc3ccc(cc3Cl)C(O)C3NC(=O)C(NC(=O)C5NC(=O)C(CC(N)=O)NC(=O)C(NC(=O)C(Cc5c[nH]cn5)NC(N)=O)C(O)c5ccc(c(Cl)c5)O4)c4ccc(O)c(c4)-c4c(O)cc(O)cc4C(C(=O)O)NC3=O)OC(CO)C(O)C2O)CC(C)(NCc2ccc(-c3ccc(Cl)cc3)cc2)C1O` (stereo not drawn) [Compound 192], the “zone score, E. faecalis CL 4877” value was 2.
